In paper PMC7859440, “Transporter Gene Regulation in Sandwich Cultured Human Hepatocytes Through the Activation of Constitutive Androstane Receptor (CAR) or Aryl Hydrocarbon Receptor (AhR)” (Frontiers in Pharmacology, 2021):
“And” between values parts separate entries of the source, which are not always exact repeats. Equal entries are not always repeated.

Legend:
CYP1A2 = conditions: SCHH, 72 h; TCDD 50 nM, OP 50 µM, CITCO 5 µM, PB 1,000 µM (highest conc.); mean ± SD, three donors
Procedure: (§1) Cryopreserved human hepatocytes were quickly thawed at 37°C and then transferred into hepatocyte thawing medium. Cells were pelleted at 100 × g for 10 min and then resuspended in hepatocyte complete plating medium (CP medium). The cells were then seeded at 65,000 cells per well in 96-well collagen I coated plates. After cell attachment (4–6 h post-seeding), CP medium was exchanged for ice-cold complete incubation medium (HI medium) containing BD Matrigel™ at the concentration of 0.25 mg/ml. The cells were then incubated overnight at 37°C in a humidified 5% CO2 incubator. […] Cell death or loss of adhesion of hepatocytes during or after treatment were examined by microscopy.
A RNeasy 96 Kit (Qiagen) was used to extract the total cellular RNA from sandwich cultured hepatocytes in 96-well plates following the manufacturer's instructions. A total volume of 200 μL RNA was obtained via the column elution provided in the RNeasy kit. […] Gene expression for each condition is expressed as a fold-change of mean ± standard deviation (SD) from three independent donors (each performed in triplicate). […]

CYP2B6 = assay: in vitro
Procedure: as §1
(§2) A RNeasy 96 Kit (Qiagen) was used to extract the total cellular RNA from sandwich cultured hepatocytes in 96-well plates following the manufacturer's instructions. A total volume of 200 μL RNA was obtained via the column elution provided in the RNeasy kit. Five μL RNA extraction was mixed with TaqMan® Fast Virus 1-Step Master Mix (Life Technologies) in a final reaction volume of 20 μL and qRT-PCR was achieved using a QuantStudio 6 Flex Real-Time PCR System (Life Technologies), following the manufacturer's instructions. β-actin mRNA expression in the SCHH was used as a house-keeping gene for the normalization of target gene expressions. The mRNA levels in SCHH treated with AhR or CAR activators were expressed by a fold change, compared to the gene expressions without the treatment. […] Gene expression for each condition is expressed as a fold-change of mean ± standard deviation (SD) from three independent donors (each performed in triplicate). All primer and probe sets were purchased from Life Technologies (Table 2). When concentration-dependent induction observed, the in vitro induction mRNA data were fitted using the sigmoid 3-parameter equation in GraphPad Prism (La Jolla, CA) to estimate the in vitro concentration of inducer that produced half the maximum induction values (EC50).

CYP3A4 = assay: in vitro; conditions: for EC50 at 72 h: human
Procedure: as §1, §2

UGT1A1 = assay: gene induction in sandwich-cultured human hepatocytes (qRT-PCR); conditions: for EC50 at 72 h: human, sandwich-cultured human hepatocytes (SCHH)
Procedure: as §1
(§3) A RNeasy 96 Kit (Qiagen) was used to extract the total cellular RNA from sandwich cultured hepatocytes in 96-well plates following the manufacturer's instructions. A total volume of 200 μL RNA was obtained via the column elution provided in the RNeasy kit. Five μL RNA extraction was mixed with TaqMan® Fast Virus 1-Step Master Mix (Life Technologies) in a final reaction volume of 20 μL and qRT-PCR was achieved using a QuantStudio 6 Flex Real-Time PCR System (Life Technologies), following the manufacturer's instructions. β-actin mRNA expression in the SCHH was used as a house-keeping gene for the normalization of target gene expressions. The mRNA levels in SCHH treated with AhR or CAR activators were expressed by a fold change, compared to the gene expressions without the treatment. The 2^−ΔΔCt method ([Livak and Schmittgen, 2001]) was used to analyze the relative changes in gene expression, where the Ct is the cycle number at which the fluorescence in the reaction crosses the preset arbitrary threshold; the ΔCt represents the difference between the Ct target and reference and the ΔΔCt is the difference between the ΔCt of the test and the ΔCt of the preassigned control. Gene expression for each condition is expressed as a fold-change of mean ± standard deviation (SD) from three independent donors (each performed in triplicate). All primer and probe sets were purchased from Life Technologies (Table 2). When concentration-dependent induction observed, the in vitro induction mRNA data were fitted using the sigmoid 3-parameter equation in GraphPad Prism (La Jolla, CA) to estimate the in vitro concentration of inducer that produced half the maximum induction values (EC50).

ABCB1 (MDR1) = assay: as above; assay type: cell-based; conditions: SCHH, 72 h; TCDD 50 nM, OP 50 µM, CITCO 5 µM, PB 1,000 µM (highest conc.); mean ± SD, three donors
Procedure: as §1, §3

ABCB11 (BSEP) = assay: as above; assay type: cell-based; conditions: SCHH, 72 h; TCDD 50 nM, OP 50 µM, CITCO 5 µM, PB 1,000 µM (highest conc.); mean ± SD, three donors
Procedure: as §1, §3

ABCC2 (MRP2) = assay: as above; assay type: cell-based; conditions: SCHH, 72 h; TCDD 50 nM, OP 50 µM, CITCO 5 µM, PB 1,000 µM (highest conc.); mean ± SD, three donors
Procedure: as §1, §3

ABCC3 (MRP3) = assay: as above; assay type: cell-based; conditions: SCHH, 72 h; TCDD 50 nM, OP 50 µM, CITCO 5 µM, PB 1,000 µM (highest conc.); mean ± SD, three donors
Procedure: as §1, §3

ABCC4 (MRP4) = assay: as above; assay type: cell-based; conditions: SCHH, 72 h; TCDD 50 nM, OP 50 µM, CITCO 5 µM, PB 1,000 µM (highest conc.); mean ± SD, three donors
Procedure: as §1, §3

ABCC5 (MRP5) = assay: as above; assay type: cell-based; conditions: SCHH, 72 h; TCDD 50 nM, OP 50 µM, CITCO 5 µM, PB 1,000 µM (highest conc.); mean ± SD, three donors
Procedure: as §1, §3

ABCC6 (MRP6) = assay: as above; assay type: cell-based; conditions: SCHH, 72 h; TCDD 50 nM, OP 50 µM, CITCO 5 µM, PB 1,000 µM (highest conc.); mean ± SD, three donors
Procedure: as §1, §3

ABCG2 (BCRP) = assay: as above; assay type: cell-based; conditions: SCHH, 72 h; TCDD 50 nM, OP 50 µM, CITCO 5 µM, PB 1,000 µM (highest conc.); mean ± SD, three donors
Procedure: as §1, §3

SLC22A1 (OCT1) = assay: as above; assay type: cell-based; conditions: SCHH, 72 h; TCDD 50 nM, OP 50 µM, CITCO 5 µM, PB 1,000 µM (highest conc.); mean ± SD, three donors
Procedure: as §1, §3

SLC47A1 (MATE1) = assay: as above; assay type: cell-based; conditions: SCHH, 72 h; TCDD 50 nM, OP 50 µM, CITCO 5 µM, PB 1,000 µM (highest conc.); mean ± SD, three donors
Procedure: as §1, §3

SLCO1B1 (OATP1B1) = assay: as above; assay type: cell-based; conditions: SCHH, 72 h; TCDD 50 nM, OP 50 µM, CITCO 5 µM, PB 1,000 µM (highest conc.); mean ± SD, three donors
Procedure: as §1, §3

SLCO1B3 (OATP1B3) = assay: as above; assay type: cell-based; conditions: SCHH, 72 h; TCDD 50 nM, OP 50 µM, CITCO 5 µM, PB 1,000 µM (highest conc.); mean ± SD, three donors
Procedure: as §1, §3

SLCO2B1 (OATP2B1) = assay: as above; assay type: cell-based; conditions: SCHH, 72 h; TCDD 50 nM, OP 50 µM, CITCO 5 µM, PB 1,000 µM (highest conc.); mean ± SD, three donors
Procedure: as §1, §3

SLCO4C1 (OATP4C1) = assay: as above; assay type: cell-based; conditions: SCHH, 72 h; TCDD 50 nM, OP 50 µM, CITCO 5 µM, PB 1,000 µM (highest conc.); mean ± SD, three donors
Procedure: as §1, §3

SLC10A1 (NTCP) = assay: as above; assay type: cell-based; conditions: SCHH; for SLC10A1 gene suppression (reduction): 3 days, highest concentration treated
SLC15A1 (PEPT1) = assay: as above; assay type: cell-based; conditions: SCHH, 72 h; TCDD 50 nM, OP 50 µM, CITCO 5 µM, PB 1,000 µM (highest conc.); mean ± SD, three donors
SLC16A1 (MCT1) = assay: as above; assay type: cell-based; conditions: SCHH, 72 h; TCDD 50 nM, OP 50 µM, CITCO 5 µM, PB 1,000 µM (highest conc.); mean ± SD, three donors
SLC22A7 (OAT2) = assay: as above; assay type: cell-based; conditions: SCHH, 72 h; TCDD 50 nM, OP 50 µM, CITCO 5 µM, PB 1,000 µM (highest conc.); mean ± SD, three donors
SLC22A9 (OAT7) = assay: as above; assay type: cell-based; conditions: SCHH, 72 h; TCDD 50 nM, OP 50 µM, CITCO 5 µM, PB 1,000 µM (highest conc.); mean ± SD, three donors
SLC22A5 (OCTN2) = assay: as above; assay type: cell-based; conditions: SCHH, 72 h; TCDD 50 nM, OP 50 µM, CITCO 5 µM, PB 1,000 µM (highest conc.); mean ± SD, three donors
SLC29A1 (ENT1) = assay: as above; assay type: cell-based; conditions: SCHH, 72 h; TCDD 50 nM, OP 50 µM, CITCO 5 µM, PB 1,000 µM (highest conc.); mean ± SD, three donors
SLC29A2 (ENT2) = assay: as above; assay type: cell-based; conditions: SCHH, 72 h; TCDD 50 nM, OP 50 µM, CITCO 5 µM, PB 1,000 µM (highest conc.); mean ± SD, three donors
SLC51A (OSTα) = assay: as above; assay type: cell-based; conditions: SCHH, 72 h; TCDD 50 nM, OP 50 µM, CITCO 5 µM, PB 1,000 µM (highest conc.); mean ± SD, three donors
SLC51B (OSTβ) = assay: as above; assay type: cell-based; conditions: SCHH, 72 h; TCDD 50 nM, OP 50 µM, CITCO 5 µM, PB 1,000 µM (highest conc.); mean ± SD, three donors
[1] = tested on: 24 hepatic drug transporter genes (mRNA); assay: gene induction in sandwich-cultured human hepatocytes (qRT-PCR), transporter panel; assay type: cell-based; conditions: sandwich-cultured human hepatocytes (SCHH), generally, 24 transporter genes, read-out: average fold change (fold induction) of transporter genes
CYP1A1 = assay: in vitro; conditions: human
Procedure: as §1
as §3, with “When concentration-dependent induction observed, the in vitro induction mRNA data were fitted using the sigmoid 3-parameter equation in GraphPad Prism (La Jolla, CA) to estimate the in vitro concentration of inducer that produced half the maximum induction values (EC50).” left out

[2] = SCHH, 72 h, TCDD 50 nM, OP 50 µM, CITCO 5 µM, PB 1,000 µM (highest conc.), mean ± SD, three donors

Clc1ccc(-c2nc3sccn3c2C=NOCc2ccc(Cl)c(Cl)c2)cc1 [CITCO, 6-(4-chlorophenyl)imidazo[2,1-b][1,3]thiazole-5-carbaldehyde O-(3,4-dichlorobenzyl)oxime]
EC50 at 72 h (CYP2B6; human, sandwich-cultured human hepatocytes (SCHH)): 0.16 ± 0.04 µM
EC50 at 72 h (UGT1A1): > 5 µM
SLC10A1 gene suppression (reduction) (SLC10A1 (NTCP)): about 2 fold

COc1ccc2[nH]c([S+]([O-])Cc3ncc(C)c(OC)c3C)nc2c1 (stereo not shown) [OP, Omeprazole]
EC50 at 72 h (CYP1A1): 3.34 ± 1.39 µM
EC50 at 72 h (UGT1A1): 28.7 ± 7.32 µM
SLC10A1 gene suppression (reduction) (SLC10A1 (NTCP)): about 2 fold
